Measured values published in BindingDB's records for PubMed 8301582 (Neuroscience Research Centre, 1994).

Molecular target: D(3) dopamine receptor (Homo sapiens, UniProt P35462)
Sequence (P35462 as listed by the source): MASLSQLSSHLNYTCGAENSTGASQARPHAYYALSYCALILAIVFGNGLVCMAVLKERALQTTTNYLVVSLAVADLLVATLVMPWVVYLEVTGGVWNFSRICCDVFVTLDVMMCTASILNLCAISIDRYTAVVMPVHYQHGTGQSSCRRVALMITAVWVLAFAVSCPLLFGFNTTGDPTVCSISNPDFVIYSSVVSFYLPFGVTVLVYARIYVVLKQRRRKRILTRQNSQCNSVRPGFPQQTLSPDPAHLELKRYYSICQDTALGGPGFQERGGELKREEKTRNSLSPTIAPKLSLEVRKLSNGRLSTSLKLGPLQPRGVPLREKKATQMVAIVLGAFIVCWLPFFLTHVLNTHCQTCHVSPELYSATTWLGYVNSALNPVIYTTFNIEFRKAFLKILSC

SMILES | Ki
Cc1cc2c(cc1C)CC(N)CC2 (configuration not stated) [ADTN DIMETHYL 5,6] | 17 nM
NC1CCc2cc(OC(=O)c3ccccc3)c(OC(=O)c3ccccc3)cc2C1 (configuration not stated) [CAS_129816] | 160 nM
CCCN(CCC)C1C=Cc2c(OC)cccc2C1C (configuration not stated) [CAS_5311190] | 4.9 nM
COc1ccc2c(c1O)-c1c3c(cc4c1[C@H](C2)N(C)CC4)OCO3 [(S)-11-methoxy-7-methyl-6,7,7a,8-tetrahydro-5H-benzo[g][1,3]dioxolo[4',5':4,5]benzo[1,2,3-de]quinolin-12-ol] | 5200 nM
CCCN1CCc2cc(F)cc3c2C1Cc1ccc(O)c(O)c1-3 (configuration not stated) [CAS_18426-20-5] | 0.21 nM
CC(C)C[C@H]1C(=O)N2CCC[C@H]2[C@]2(O)O[C@](NC(=O)[C@@H]3C=C4c5cccc6[nH]c(Br)c(c56)C[C@H]4N(C)C3)(C(C)C)C(=O)N12 [Bromocriptine+ (GTP+)] | 2.1 nM
CCCN(CCC)C1CCc2cc(O)c(O)cc2C1 (racemic) [CAS_62421-17-4] | 0.68 nM
